Source: PMC12040169 (PLOS Biology, 2025)

test: in vitro; settings: human, hela cells, % viability

| SMILES | viability at 28.5 h, 10 µM [%] |
| --- | --- |
| CCCCCOc1ccc(-c2ccc(Cl)nn2)cc1 [CBK007044] | 83.7 |
| COC(=O)CSc1nnc(CSc2cc(C)nc(N3CCOCC3)n2)o1 [CBK007059] | 96.1 |
| C/C(=N/NC(N)=S)c1ccccc1OCC(=O)O [CBK007123] | 97.9 |
| O=C1C=C(N2CCC(CCC3CCN(C4=CC(=O)CCC4)CC3)CC2)CCC1 [CBK007126] | 105 |
| COC(=O)/N=C1/Nc2ccccc2CN1CC(N)=O [CBK007160] | 91.9 |
| COc1ccc(-c2cc(NC(=S)NC(=O)/C=C/c3ccccc3)[nH]n2)cc1 [CBK007190] | 97.9 |
| O=C(c1c[nH]c2ccccc12)C(F)(F)C(F)(F)F [CBK007222] | 101 |
| CS(=O)(=O)c1nsc(Cl)n1 [CBK007229] | 87.9 |
| FC(F)(F)c1ccc2[nH]c(Cn3cncn3)nc2c1 [CBK007335] | 85.3 |
| CC1(C)CC(=O)c2cnc3ncnn3c2C1 [CBK007345] | 110 |
| CN(C)c1nc(N2CCN(c3ccc(F)cc3)CC2)cc(C(F)(F)F)n1 [CBK007432] | 91.1 |
| COc1ccc(/C=N/NC(=O)C2CCN(c3ncc(C(F)(F)F)cc3Cl)CC2)cc1 [CBK007433] | 102 |
| O=C(Cc1ncc(C(F)(F)F)cc1Cl)NO [CBK007437] | 85 |
| COc1ccc(-n2nc(N)c3c(=O)oc(N(C)C)nc32)cc1 [CBK007445] | 89.9 |
| CN(C)c1nc(N2CCOCC2)c(C#N)c(=O)o1 [CBK007447] | 116 |
| O=C1NC2(CCSCC2)Oc2ccccc21 [CBK007488] | 79.3 |
| Cc1cc(CC(=O)N/N=C/c2ccccc2)[nH]n1 [CBK007500] | 99.8 |
| Cc1nn2c(c1-c1ccno1)CCCCC2 [CBK007505] | 97.6 |
| CSc1ncnc2c1CC=N2 [CBK007532] | 96.4 |
| O=C(Nc1nc2ccccc2s1)NC1CC1 [CBK007542] | 102 |
| CC(C)C(=O)N(C)c1nnc(-c2cccnc2)s1 [CBK007554] | 114 |
| COC(=O)c1c(C(C)(C)C)c(O)c2ccoc2c1OC [CBK007577] | 94.2 |
| Oc1cccc2c1CC(NCC(F)(F)C(F)(F)F)CC2 (stereo not shown) [CBK007596] | 96.5 |
| O=C(N[C@H]1COC(=O)N1)OCc1ccccc1 [CBK007606] | 114 |

| SMILES | viability at 28.5 h, 10 µM [%] |
| --- | --- |
| CCCCCC(=O)N1CCc2cc(N3CC(CNC(C)=O)OC3=O)ccc21 (stereo not shown) [CBK007646] | 92.5 |
| COc1ccc(C2Oc3cccnc3N(CCCN(C)C)C2=O)cc1 (stereo not shown) [CBK007694] | 101 |
| Cc1c(C#N)c(=O)oc2ccccc12 [CBK007705] | 95.2 |
| CC(C)(C)OC(=O)N1Cc2c(-c3noc(C4CC4)n3)ncn2-c2ccc(Cl)cc21 [CBK007792] | 90.2 |
| CCCCCC(=O)N[C@H]1CCC[C@H]1C(=O)O [CBK007807] | 118 |
| O=C1c2ccccc2C(=O)N1CCc1nnn[nH]1 [CBK007829] | 111 |
| C/C(=N\O)c1ccc(S(N)(=O)=O)cc1 [CBK007871] | 100 |
| NC(=O)CCCN1CC[C@H]2c3c(cccc3C(N)=O)CC[C@H]21 [CBK007883] | 93.3 |
| CCOc1n[s+]([O-])nc1Nc1cc(Cl)cc(Cl)c1 (stereo not shown) [CBK007897] | 101 |
| OC1(c2nnsc2-c2ccccc2)CCCC1 [CBK007956] | 90.2 |
| Cc1c(NC(=S)NCCCN2CCOCC2)c(=O)n(-c2ccccc2)n1C [CBK008032] | 90.7 |
| O=C(NCc1cccs1)OCc1ccccc1 [CBK008074] | 96.6 |
| CN(C(=O)OC(C)(C)C)C1CN(C(c2ccccc2)c2ccccc2)C1 [CBK008111] | 89.8 |
| O=C1C=C(O)CC(CCc2ccc(F)cc2)(CCc2ccc(F)cc2)O1 [CBK008148] | 92.7 |
| N#CC(N)c1c(Cl)cccc1Cl (stereo not shown) [CBK008288C] | 103 |
| CCCOc1ccc(Cc2nc(N(C)C)cc(N(C)C)n2)cc1 [CBK008318] | 102 |
| O=C(c1c[nH]c(-c2ncn[nH]2)c1)c1ccc(Cl)cc1Cl [CBK008334] | 93.4 |
| Sc1nccn1Cc1cccs1 [CBK008454] | 92 |
| N#CCSC1=CC(=O)CC(c2ccccc2)S1 (stereo not shown) [CBK008460] | 92.1 |
| COCc1cc(=O)oc2cc(NS(C)(=O)=O)ccc12 [CBK008516] | 119 |
| S=C(NCc1cccs1)NC1CC1 [CBK008520] | 86.4 |
| CC(C)(C)c1ccc(OCc2nc(N)c3c(N)n[nH]c3n2)cc1 [CBK008565] | 90.8 |
| C=CCOCc1cc(O)n2nc(SC)c(C(N)=O)c2n1 [CBK008592] | 94.6 |
| COc1ccc(OC)c(S(=O)(=O)N2CCN(c3ncccn3)CC2)c1 [CBK008662] | 92.7 |

| SMILES | viability at 28.5 h, 10 µM [%] |
| --- | --- |
| CC(C)(C)c1ccc(C(=O)N2CC(C(=O)O)C2)cc1 [CBK008670] | 101 |
| NC(Cc1ccc(Cl)cc1)C(=O)N(CCc1cc(C(F)(F)F)cc(C(F)(F)F)c1)c1cccc2ccccc12 (stereo not shown) [CBK008674T] | 92.5 |
| CCN(CC)CCOC(=O)c1oc2c3c(ccc2c1C)OCCO3 [CBK008676C] | 115 |
| CCCCc1nnc(CC(C)C)o1 [CBK008679] | 106 |
| CCCCn1cc(CN(C)C)c2c(C)ccnc21 [CBK008697] | 102 |
| CCOC(=O)C1=C(N)OC2=C(C(=O)CC(C)(C)C2)C1c1cc(OCC)ccc1OCC (stereo not shown) [CBK008699] | 107 |
| Cc1nnc(O)c2c(C)n(-c3ccc(Br)cc3)nc12 [CBK008726] | 86.2 |
| CC1(C)O[C@@H]2O[C@@H](C(O)CNC(=O)c3ccccc3)[C@@H](O)[C@@H]2O1 (stereo partly shown) [CBK008736] | 87 |
| Cc1ccc(C2(C(=O)N3CCCC3)CCN(S(=O)(=O)c3ccc(C)cc3)CC2)cc1 [CBK008752] | 102 |
| COc1ccc(C2c3ccccc3C[N+]3(C)CCCN23)cc1 (stereo not shown) [CBK008769] | 95.7 |
| Cc1cc(C)[n+](-c2nccs2)c(C)c1 [CBK008782G] | 103 |
| Cc1cc(C)c2c(n1)oc1c(Cl)ncnc12 [CBK008822] | 93 |
| CCOC(=O)NC(Nc1nc2ccccc2s1)(C(F)(F)F)C(F)(F)F [CBK008913] | 93.6 |
| CN1C(=S)SC(C)(N(O)C(=O)NC2CCCCC2)C1(C)C (stereo not shown) [CBK008916] | 110 |
| COc1ccc(NC(=O)CSc2nsc(SCC(=O)Nc3ccc(OC)cc3)n2)cc1 [CBK008918] | 92.5 |
| CCC1(C)CC(C(N)=S)CCO1 (stereo not shown) [CBK008954] | 97 |
| CC12CN3CC(C)(CN(C1)C3c1cccc([N+](=O)[O-])c1)C2=O (stereo not shown) [CBK009030] | 88.9 |
| O=C(c1ccc2ccccc2c1)C12CN3CN(CN(C3)C1)C2 [CBK009031] | 89.1 |
| CCCCOc1ccc(-c2cn(CC(N)=O)cn2)cc1 [CBK009035] | 110 |
| Cc1onc(-c2ccccc2)c1-c1n[nH]c(=S)o1 [CBK009044] | 76.7 |
| CN1CCCCC/C1=N/C(=S)CN1CCCC1=S [CBK009052] | 96.3 |
| COC(=O)[C@H]1O[C@H](c2ccccc2)[C@@H]2C(=O)N(C)C(=O)[C@@H]21 [CBK009058] | 87.6 |
